Test results taken from patent publication EP0435826A1, “Intravenous solutions for epilepsy” (CIBA-GEIGY AG, priority 1989, dated 1991).

Key:
[1] = test system: Tonische Konvulsionen der Hinterextremitäten; test: Maximal electroshock test in rats (Elektroschock Test an Ratten); format: in vivo; settings: for ED50: Rattus norvegicus, read-out: Schutz vor dem maximalen Elektroschock ED50
From the text: (§1) Beispiel 5: Die akute Schutzwirkung von Carbamazepin und Oxcarbazepin nach intravenöser Verabreichung im Vergleich zur oralen wurde mit Hilfe des maximalen Elektroschocks ermittelt. Die folgenden Methoden wurden verwendet:
-Elektroschock Test an Ratten: Tonische Konvulsionen der Hinterextremitäten wurden durch Verabreichung eines Wechselstroms von 50 Hz und 36 mA während 0,63 Sekunden mit Hilfe von Cornealelektroden ausgelöst. Es wurden 10 Ratten pro Dosis und Zeiteinheit verwendet; eine Gruppe diente als Kontrolle. Die Anzahl der Ratten, die keine tonische Konvulsionen der Hinterextremitäten aufwiesen, wurde für jede Gruppe bestimmt. Die ED₅₀ wurde mit Hilfe der Regressionsanalyse nach der Methode von Spearman und Kärber berechnet.
(§2) -Elektroschock Test an Mäusen: Tonische Konvulsionen der Hinterextremitäten wurden durch Verabreichung eines Wechselstromes von 50 Hz und 18 mA während 0,2 Sekunden mittels Cornealelektroden ausgelöst. Für jede Dosis und Zeiteinheit wurden 10 Mäuse verwendet; eine Gruppe diente als Kontrolle. Die Anzahl der Mäuse, die keine tonische Konvulsionen der Hinterextremitäten zeigte, wurde für jede Gruppe bestimmt. Die ED₅₀ wurde mit Hilfe der Regressionsanalyse nach der Methode von Spearman und Kärber bestimmt. Die Injektionsvolumina für i.v. Verabreichung sind 5 ml/kg bei Mäusen und 1 ml/kg bei Ratten.
[…] Die ED₅₀-Werte wurden durch Regressionsanalyse aus drei verschiedenen Dosen (10 Ratten pro Dosis) berechnet.

[2] = test system: Tonische Konvulsionen der Hinterextremitäten; test: Maximal electroshock test in mice (Elektroschock Test an Mäusen); format: in vivo; settings: Mäuse; for ED50: Mus musculus, read-out: Schutz vor dem maximalen Elektroschock ED50
From the text: as §1, §2

[3] = Solubility and properties of aqueous Hydroxypropyl-γ-cyclodextrin injection solutions; settings: 22°C, in 40%-iger wässriger Lösung von Hydroxypropyl-γ-cyclodextrin
Procedure: In 100 ml dieser Lösung werden 1500 mg Carbamazepin durch Rühren bei Raumtemperatur (= 20°C) gelöst.
In 100 ml dieser Lösung werden 400,0 mg fein gemahlenes Oxcarbazepin durch Rühren bei 22°C gelöst.

[4] = iv, 5 min, intravenös, 5 min before shock
[5] = iv, 0.25 h, intravenös, 15 min before shock
[6] = po, 5 min, oral (suspension in Methocel®), 5 min
[7] = po, 0.5 h, oral (suspension in Methocel®), 30 min
[8] = po, 1 h, oral (suspension in Methocel®), 60 min
[9] = iv, 2.5 min, intravenös, 2,5 min
[10] = po, 2 h, oral (suspension in Methocel®), 120 min
[11] = po, 0.25 h, oral (suspension in Methocel®), 15 min

| SMILES | ED50 [1, 4] [mg/kg] | ED50 [1, 5] [mg/kg] | ED50 ([1]; iv, 0.5 h, intravenös, 30 min) [mg/kg] | ED50 ([1]; iv, 1 h, intravenös, 60 min) [mg/kg] | ED50 ([1]; iv, 2 h, intravenös, 120 min) [mg/kg] | ED50 [1, 7] [mg/kg] | ED50 [1, 8] [mg/kg] | ED50 [2, 9] [mg/kg] | ED50 ([2]; iv, 5 min, intravenös, 5 min) [mg/kg] | ED50 ([2]; iv, 0.25 h, intravenös, 15 min) [mg/kg] | ED50 ([2]; iv, 0.5 h, intravenös, 30 min) [mg/kg] | ED50 ([2]; iv, 1 h, intravenös, 60 min) [mg/kg] | ED50 [2, 8] [mg/kg] | ED50 [2, 10] [mg/kg] | other results |
| --- | --- | --- | --- | --- | --- | --- | --- | --- | --- | --- | --- | --- | --- | --- | --- |
| NC(=O)N1c2ccccc2C=Cc2ccccc21 [Carbamazepin, 5H-Dibenz[b,f]azepin-5-carboxamid] | 2.5 | 2.5 | 2 | 3.1 | 4.3 | 9.6 | 10 | 2.9 | 2.6 | 4.7 | 6.8 | 6.5 | 13 | 27 | ED50 ([1]; po, 2.5 min, oral (suspension in Methocel®), 2,5 min): 60 mg/kg; ED50 [1, 6]: 60 mg/kg; ED50 ([2]; iv, 2 h, intravenös, 120 min): 17.3 mg/kg; Schutz vor dem maximalen Elektroschock ([2]; oral (suspension in Methocel®), 2,5 min, bei 60 mg/kg): 10 % bei 60 mg/kg |
| NC(=O)N1c2ccccc2CC(=O)c2ccccc21 [Oxcarbazepin, 10,11-Dihydro-10-oxo-5-dibenz[b,f]-acepin-5-carboxamid] | 3.44 | 2.5 | 3.44 | 4.85 | 5.7 | 12.2 | 15.8 | 4.35 | 4.35 | 5 | 7.07 | 10.7 | 17.8 | 36.3 | Löslichkeit [3]: 37 mg in 10,0 ml; ED50 [1, 11]: 12.2 mg/kg; ED50 [1, 10]: 16.1 mg/kg; Schutz vor dem maximalen Elektroschock ED50 ([1]; intravenös, 15 min before shock, 15 min): 3,44 mg/kg; Schutz vor dem maximalen Elektroschock ([1]; oral (suspension in Methocel®), 5 min, bei 30 mg/kg): 20 % bei 30 mg/kg; ED50 [2, 6]: 40.4 mg/kg; ED50 [2, 11]: 14.5 mg/kg; ED50 [2, 7]: 15.7 mg/kg; Schutz vor dem maximalen Elektroschock ED50 ([2]; intravenös, 2,5 min, 2.5 min): 2,35 mg/kg; Schutz vor dem maximalen Elektroschock ED50 ([2]; intravenös, 15 min): 5,00 mg/kg; Schutz vor dem maximalen Elektroschock ED50 ([2]; intravenös, 60 min): 10,72 mg/kg; Schutz vor dem maximalen Elektroschock ([2]; intravenös, 120 min, bei 20 mg/kg): 20 % bei 20 mg/kg |
